Values of other authors in patent US5891889A, “Inhibitors of farnesyl-protein transferase” (Merck & Co., Inc., priority 1997, dated 1999).

Tested on: farnesyl-protein transferase
Settings: via inhibition of HMG-CoA reductase; literature

SMILES | Indirect inhibition of farnesyl-protein transferase in vivo
CC[C@H](C)C(=O)O[C@H]1C[C@@H](C)C=C2C=C[C@H](C)[C@H](CC[C@@H]3C[C@@H](O)CC(=O)O3)[C@H]21 [lovastatin] | Indirect inhibition of farnesyl-protein transferase in vivo has been demonstrated
CC[C@H](C)C(=O)O[C@H]1CCC=C2C=C[C@H](C)[C@H](CC[C@@H]3C[C@@H](O)CC(=O)O3)[C@H]21 [compactin] | Indirect inhibition of farnesyl-protein transferase in vivo has been demonstrated
